Where a name gives a salt, the structure may show the parent alone.
Biological target: T1, TAFIa (Homo sapiens, UniProt Q96IY4)
T1 sequence (Q96IY4 115-423): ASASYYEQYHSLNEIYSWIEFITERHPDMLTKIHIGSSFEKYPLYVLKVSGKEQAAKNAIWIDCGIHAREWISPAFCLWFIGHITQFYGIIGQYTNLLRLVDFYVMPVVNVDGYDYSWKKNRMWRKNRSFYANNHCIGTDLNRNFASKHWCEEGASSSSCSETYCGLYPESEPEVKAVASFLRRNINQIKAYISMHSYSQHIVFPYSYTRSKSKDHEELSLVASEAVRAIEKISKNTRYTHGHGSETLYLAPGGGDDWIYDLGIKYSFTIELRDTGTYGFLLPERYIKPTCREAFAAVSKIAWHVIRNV
Experiment: Inhibition of TAFIa (hippuryl-Arg test)
Format: biochemical
Settings: TAFIa 2 nM, hippuryl-arginine 5 mM, 45 minutes, relative to control containing the carrier; for inhibition at 0.01 µM: compound at 10 nM; for inhibition at 0.02 µM: compound at 20 nM
Procedure, shortened: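 TAFI (4 nM) activated 20 min by thrombin/thrombomodulin with 10 mM calcium, stopped with PPACK; TAFIa (2 nM) then incubated 45 min with compound and 5 mM hippuryl-arginine in Hepes buffer, pH 7.4, 28 °C. Absorbance at 405 nm, blank-corrected; % inhibition versus carrier at 10 and 20 nM.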

Row | Compound | inhibition at 0.01 µM [%] | inhibition at 0.02 µM [%]
1 | NCCCC[C@@]1(C(=O)O)CN(Cc2ccc(F)cc2-c2ccc(O)nc2)CCP1(=O)O [Example 241, (3S)-3-(4-AMINOBUTYL)-1-[[4-FLUORO-2-(6-HYDROXYPYRIDIN-3-YL)PHENYL]-METHYL]-4-HYDROXY-4-OXO-1,4-AZAPHOSPHINANE-3-CARBOXYLIC ACID] | 77 | 91
2 | COc1ccc(-c2cc(O)ccc2CN2CCP(=O)(O)[C@](CCCCN)(C(=O)O)C2)cn1 [Example 242, (3S)-3-(4-AMINOBUTYL)-4-HYDROXY-1-[[4-HYDROXY-2-(6-METHOXYPYRIDIN-3-YL)PHENYL]METHYL]-4-OXO-1,4-AZAPHOSPHINANE-3-CARBOXYLIC ACID] | 75 | 88
3 | COc1cccc(-c2cc(F)ccc2CN2CCP(=O)(O)[C@](CCCCN)(C(=O)O)C2)n1 [Example 244, (3S)-3-(4-AMINOBUTYL)-1-[[4-FLUORO-2-(6-METHOXYPYRIDIN-2-YL)PHENYL]-METHYL]-4-HYDROXY-4-OXO-1,4-AZAPHOSPHINANE-3-CARBOXYLIC ACID] | 49 | 68
4 | NCCCC[C@@]1(C(=O)O)CN(Cc2ccc(F)cc2-c2nccs2)CCP1(=O)O [Example 245, (3S)-3-(4-AMINOBUTYL)-1-[[4-FLUORO-2-(1,3-THIAZOL-2-YL)PHENYL]METHYL]-4-HYDROXY-4-OXO-1,4-AZAPHOSPHINANE-3-CARBOXYLIC ACID] | 38 | 52
5 | Cn1cncc1-c1cc(O)ccc1CN1CCP(=O)(O)[C@](CCCCN)(C(=O)O)C1 [Example 246, (3S)-3-(4-Aminobutyl)-4-hydroxy-1-[[4-hydroxy-2-(3-methylimidazol-4-yl)phenyl]methyl]-4-oxo-1,4-azaphosphinane-3-carboxylic acid, hydrobromide] | 72 | 86
6 | Cn1nccc1-c1cc(O)ccc1CN1CCP(=O)(O)[C@](CCCCN)(C(=O)O)C1 [Example 247, (3S)-3-(4-AMINOBUTYL)-4-HYDROXY-1-[[4-HYDROXY-2-(2-METHYLPYRAZOL-3-YL)PHENYL]METHYL]-4-OXO-1,4-AZAPHOSPHINANE-3-CARBOXYLIC ACID] | 85 | 89
7 | COc1ccc(-c2ccccc2CN2CCP(=O)(O)[C@](CCCCN)(C(=O)O)C2)cc1OC [Example 248, (3S)-3-(4-AMINOBUTYL)-1-[[2-(3,4-DIMETHOXYPHENYL)PHENYL]METHYL]-4-HYDROXY-4-OXO-1,4-AZAPHOSPHINANE-3-CARBOXYLIC ACID] | 87 | 95
8 | Cc1ncc(-c2cc(O)ccc2CN2CCP(=O)(O)[C@](CCCCN)(C(=O)O)C2)n1C [Example 249, (3S)-3-(4-AMINOBUTYL)-1-[[2-(2,3-DIMETHYLIMIDAZOL-4-YL)-4-HYDROXYPHENYL]METHYL]-4-HYDROXY-4-OXO-1,4-AZAPHOSPHINANE-3-CARBOXYLIC ACID] | 88 | 94
9 | Cc1ncc(-c2ccccc2CN2CCP(=O)(O)[C@](CCCCN)(C(=O)O)C2)n1C [Example 250, (3S)-3-(4-AMINOBUTYL)-1-[[2-(2,3-DIMETHYLIMIDAZOL-4-YL)PHENYL]-METHYL]-4-HYDROXY-4-OXO-1,4-AZAPHOSPHINANE-3-CARBOXYLIC ACID] | 88 | 97
10 | NCCCC[C@@]1(C(=O)O)CN(Cc2ccc(F)cc2-c2ccc(F)c(O)c2)CCP1(=O)O [Example 251, (3S)-3-(4-AMINOBUTYL)-1-[[4-FLUORO-2-(4-FLUORO-3-HYDROXYPHENYL)-PHENYL]METHYL]-4-HYDROXY-4-OXO-1,4-AZAPHOSPHINANE-3-CARBOXYLIC ACID] | 70 | 90
11 | NCCCC[C@@]1(C(=O)O)CN(Cc2ccccc2-c2ccncc2)CCP1(=O)O [Example 252, (3S)-3-(4-AMINOBUTYL)-4-HYDROXY-4-OXO-1-[(2-PYRIDIN-4-YLPHENYL)-METHYL]-1,4-AZAPHOSPHINANE-3-CARBOXYLIC ACID] | 76 | 90
